Patent US20220265176A1, “A NOVEL, ORGAN-ON-A-CHIP DEVICE FOR ASSESSING TRANS-EPITHELIAL TRANSPORT, AND USES THEREOF” (The Johns Hopkins University, priority 2019, published 2022)

Columns and labels:
[1] = tested on: cysts; settings: mouse models of ADPKD; AVP treatment; reference [15]; cited from earlier work
[2] = tested on: MDCK-II epithelium; assay: Micro-fluidic Kidney Pump (MFKP) pump performance curve, MDCK-II epithelium; assay type: cell-based
Source text: (§1) A micro-fluidic device to measure transepithelial fluid absorption activities of the kidney epithelium while allowing for cell imaging andvsimultaneous control of fluid pressure, shear stress (FSS), and media chemical composition is described herein (see FIG. 2A-2F). The device measures fluidic flux across the epithelium as a function of apical and basal pressures using a microcapillary (MC) connected to port 2 or 3 (FIG. 2C). The MC measures both the trans-epithelial fluid flux and the hydraulic pressure (FIG. 2C, 2F). […] Calibration experiments are performed to obtain capillary action contribution from the MC to the basal pressure and the static pressure profiles of each device for the shear flow condition considered.

[3] = tested on: WTc cells; assay: MFKP pump performance curve, wild type cortex (WTc) primary kidney cells; assay type: cell-based, human
Source text: as §1
(§2) Next, it was considered whether the device is useful for understanding fluidic pumping by primary human normal kidney and ADPKD cystic cells. […] The barrier function of the epithelia was again assessed using dye permeation assay (FIG. 15A-15I).
(§3) Port 1 is closed. (4B) Schematic of the setup, which allows measurement of trans-epithelial fluid flux from the basal to apical chamber. (4C) Schematic representation of a cystic kidney derived from ADPKD patients. (4D) Schematic representation of a kidney derived from normal human patients. (4E) The MC is connected to port 3 in the MFKP. Port 1 is closed. (4F) This setup enables measurement of trans-epithelial fluid flux from apical to basal chamber.

[4] = tested on: ADPKD cystic cells; assay: MFKP pump performance curve, ADPKD cystic cells; assay type: cell-based, human
Source text: as §1, §2
Port 1 is closed. (4B) Schematic of the setup, which allows measurement of trans-epithelial fluid flux from the basal to apical chamber. (4C) Schematic representation of a cystic kidney derived from ADPKD patients.

[5] = tested on: WTm cells; assay: MFKP pump performance curve, wild type medulla (WTm) primary kidney cells; assay type: cell-based, human
Source text: as §1, §2, §3

[6] = tested on: ADPKD kidney; settings: reference [16]; cited from earlier work
[7] = molecular target: V2R (Homo sapiens, UniProt P30518); settings: reference [18]; cited from earlier work
[8] = mature ADPKD epithelium, 1 nM TVP on basolateral side for 1 hour, vs control

V2R, sequence (P30518 whole entry, species assumed): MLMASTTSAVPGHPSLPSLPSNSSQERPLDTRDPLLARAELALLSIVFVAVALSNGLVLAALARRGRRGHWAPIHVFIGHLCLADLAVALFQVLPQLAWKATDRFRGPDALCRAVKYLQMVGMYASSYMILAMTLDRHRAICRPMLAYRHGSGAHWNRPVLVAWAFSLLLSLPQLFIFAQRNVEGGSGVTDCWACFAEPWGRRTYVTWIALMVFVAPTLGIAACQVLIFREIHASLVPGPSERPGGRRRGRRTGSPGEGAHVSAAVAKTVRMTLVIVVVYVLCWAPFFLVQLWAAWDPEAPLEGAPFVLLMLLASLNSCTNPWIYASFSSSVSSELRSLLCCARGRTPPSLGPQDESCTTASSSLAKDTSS

SMILES: NC(=O)CC[C@@H]1NC(=O)[C@H](Cc2ccccc2)NC(=O)[C@H](Cc2ccc(O)cc2)NC(=O)[C@@H](N)CSSC[C@@H](C(=O)N2CCC[C@H]2C(=O)N[C@@H](CCCN=C(N)N)C(=O)NCC(N)=O)NC(=O)[C@H](CC(N)=O)NC1=O [AVP, arginine vasopressin]
- cyst growth [1]: grow bigger
- pump performance curve (PPC) ([2]; MDCK-II epithelium, chemical perturbation (addition of AVP)): changes substantially
- J0 and ΔP* ([3]; basolateral treatment of AVP): variable response
- stall pressure ΔP* ([4]; ADPKD cells, basolateral treatment of AVP): −300 Pa
- basal-to-apical fluid pumping ([4]; ADPKD epithelium, basolateral treatment of AVP): massive surge
- J0 and ΔP* ([5]; basolateral treatment of AVP): variable response

SMILES: C[C@@H]1O[C@@H](O[C@H]2C[C@@H](O)[C@]3(CO)[C@H]4[C@H](O)C[C@]5(C)[C@@H](C6=CC(=O)OC6)CC[C@]5(O)[C@@H]4CC[C@]3(O)C2)[C@H](O)[C@H](O)[C@H]1O [Ouabain]
- equilibrium fluid flux (J0) ([3]; after Ouabain induced inhibition of NKA (control 4.3)): 1.7 μL/min/cm^2
- stall pressure ΔP* ([3]; after Ouabain induced inhibition of NKA (control 157 Pa)): 34 Pa
- J0 ([5]; overnight incubation with 274 μM Ouabain (control 4.3)): 1.0 μL/min/cm2
- ΔP* ([5]; overnight incubation with 274 μM Ouabain (control 56 Pa)): 42 Pa

SMILES: Cc1ccccc1C(=O)Nc1ccc(C(=O)N2CCCC(O)c3cc(Cl)ccc32)c(C)c1 (stereo not drawn) [Tolvaptan]
- total kidney volume [6]: decreased
- J0 (fluid flux at zero pressure gradient) [4, 8]: decreased
- stall pressure ΔP* [4, 8]: decreased
- cAMP levels [7]: decrease

SMILES: C[C@@H](N)[C@H]1CC[C@H](C(=O)Nc2ccncc2)CC1 [Y-27367]
- fluid flux ([2]; MDCK-II epithelium in MFKP, addition of Y-27367): did not influence fluid flux significantly
